Measured values as given in patent publication US20110201564A1, “SUBSTITUTED 7-SULFANYLMETHYL, 7-SULFINYLMETHYL AND 7-SULFONYLMETHYL INDOLES AND USE THEREOF” (BAYER SCHERING PHARMA AKTIENGESELLSCHAFT, priority 2008, published 2011).
Like-named read-outs stand apart in the source and are kept apart here.

Legend:
[1] = biological target: T1, human mineralocorticoid receptor (MR) (Homo sapiens, UniProt P08235); experiment: Cellular in vitro assay, GAL4-MR chimera luciferase reporter in CHO K1 cells (inhibitory MR activity); format: cell-based; conditions: antagonism vs aldosterone; CHO K1 GAL4-MR LBD luciferase reporter
T1 construct: expressed in transfected cells; host or cells: CHO K1
T1 sequence (P08235 734-984 limits assumed): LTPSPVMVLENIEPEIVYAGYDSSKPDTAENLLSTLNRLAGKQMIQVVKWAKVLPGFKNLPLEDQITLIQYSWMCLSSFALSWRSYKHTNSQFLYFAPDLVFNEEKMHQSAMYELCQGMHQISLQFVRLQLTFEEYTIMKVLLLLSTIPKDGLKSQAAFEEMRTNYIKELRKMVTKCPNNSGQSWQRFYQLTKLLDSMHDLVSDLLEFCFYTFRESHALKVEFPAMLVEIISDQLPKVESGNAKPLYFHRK
Text: (§1) 1. Cellular In Vitro Assay to Determine the Inhibitory MR Activity and MR Selectivity Compared with Other Steroid Hormone Receptors
(§2) Antagonists of the human mineralocorticoid receptor (MR) are identified, and the activity of the compounds described herein is quantified with the aid of a recombinant cell line. The cell is originally derived from a hamster ovary epithelial cell (Chinese Hamster Ovary, CHO K1, ATCC: American Type Culture Collection, VA 20108, USA).
(§3) An established chimera system in which the ligand-binding domains of human steroid hormone receptors are fused to the DNA-binding domain of the yeast transcription factor GAL4 is used in this CHO K1 cell line. The GAL4-steroid hormone receptor chimeras produced in this way are cotransfected and stably expressed with a reporter construct in the CHO cells.
(§4) To generate the GAL4-steroid hormone receptor chimeras, the GAL4 DNA-binding domain (amino acids 1-147) from the vector pFC2-dbd (from Stratagene) is cloned with the PCR-amplified ligand-binding domains of the mineralocorticoid receptor (MR, amino acids 734-985), of the progesterone receptor (PR, amino acids 680-933) and of the androgen receptor (AR, amino acids 667-919) into the vector pIRES2 (from Clontech). The reporter construct, which comprises five copies of the GAL4 binding site upstream of a thymidine kinase promoter, leads to expression of firefly luciferase (Photinus pyralis) after activation and binding of the GAL4-steroid hormone receptor chimeras by the respective specific agonists aldosterone (MR), dexamethasone (GR), progesterone (PR) and dihydrotestosterone (AR).
(§5) The MR, PR and AR cells are plated out in medium (Optimem, 2.5% FCS, 2 mM glutamine, 10 mM HEPES) in 96- (or 384- or 1536-)well microtiter plates on the day before the assay and are kept in a cell incubator (96% humidity, 5% v/v CO2, 37° C.). On the day of the assay, the substances to be tested are taken up in the abovementioned medium and added to the cells. About 10 to 30 minutes after addition of the test substances, the respective specific agonists of the steroid hormone receptors are added. After a further incubation time of 5 to 6 hours, the luciferase activity is measured with the aid of a video camera. The measured relative light units as a function of the substance concentration result in a sigmoidal stimulation curve. The IC50 values are calculated with the aid of the GraphPad PRISM computer program (Version 3.02).

androgen receptor (AR) = biological target: T2, androgen receptor (AR) (Homo sapiens, UniProt P10275); experiment: Cellular in vitro assay, GAL4-AR chimera luciferase reporter in CHO K1 cells (selectivity); format: cell-based; conditions: antagonism vs dihydrotestosterone; CHO K1 GAL4-AR LBD luciferase reporter
T2 construct: of the androgen receptor (AR, amino acids 667-919); expressed in transfected cells; host or cells: CHO K1
T2 sequence (P10275 668-920): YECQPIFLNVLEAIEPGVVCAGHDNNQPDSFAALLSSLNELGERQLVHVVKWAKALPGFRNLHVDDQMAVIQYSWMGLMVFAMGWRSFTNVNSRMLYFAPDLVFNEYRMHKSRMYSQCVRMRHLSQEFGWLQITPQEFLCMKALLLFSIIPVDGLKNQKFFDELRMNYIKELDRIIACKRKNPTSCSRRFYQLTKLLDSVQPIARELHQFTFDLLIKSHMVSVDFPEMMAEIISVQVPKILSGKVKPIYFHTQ
Text: as §1, §2, §3, §4, §5

CYP3A4 = biological target: T3, CYP3A4 (Homo sapiens, UniProt P08684); experiment: CYP inhibition assay with human liver microsomes; format: in vitro ADME
T3 construct: using human liver microsomes (pool from various individuals); from tissue; host or cells: human liver microsomes (pool from various individuals)
Text: Inhibitory properties of an active ingredient on the cytochromes P450 (CYP) of the human body may entail extensive clinical effects (drug interactions) because most of the prescribed medicaments are degraded (metabolized) by these enzymes. The ones involved in this are in particular the CYP isoenzymes of the 1A and 2C families, CYP2D6 and, with a proportion of almost 50%, CYP3A4. In order to preclude or minimize these possible drug interactions (Drug-Drug Interactions, DDI), the ability of substances to be able to inhibit CYP1A2, CYP2C8, CYP2C9, CYP2D6 and CYP3A4 in humans is investigated using human liver microsomes (pool from various individuals). This takes place by measuring CYP isoform-specific metabolites formed from standard substrates such as, for example, phenacetin, amodiaquin, diclofenac, dextromethorphan, midazolam and testosterone. The inhibitory effects are investigated at six different concentrations of the test compounds (1.5, 3.1, 6.3, 12.5, 25 and 50 μM as maximum concentration or 0.6, 1.3, 2.5, 5, 10 and 20 μM as maximum concentration), comparing with the extent of the CYP isoform-specific metabolite formation of the standard substrates in the absence of the test compounds, and calculating the corresponding IC50 values. CYP isoform-specific standard inhibitors such as, for example, fluvoxamine, quercetin, sulfaphenazole, fluoxetine and ketoconazole serve as control of the results obtained. In order to obtain indications of the possible mechanism-based inhibitors (MBI) on CYP3A4, the human liver microsomes are incubated in the presence of the inhibitor to be investigated for 30 minutes before the addition of midazolam or testosterone as standard substrates of CYP3A4. A reduction in the IC50 obtained by comparison with the mixture without preincubation serves as an indicator of a mechanism-based inhibition. Mibefradil serves as positive control.
The incubations of the standard substrates with human liver microsomes (23-233 μg/mL) in the presence of the test compound (as potential inhibitor) are carried out in 96-well plates in a workstation (Tecan, Genesis, Crailsheim, Germany) at 37° C. The incubation times are 15-20 minutes. The test compounds are preferably dissolved in acetonitrile (1.0 or 2.5 mM stock solution). The 96-well plates are produced by sequential addition of a stock solution of NADP+, EDTA, glucose 6-phosphate and glucose-6-phosphate dehydrogenase in phosphate buffer (pH 7.4), the test compound, and a solution of standard substrate and human liver microsomes in phosphate buffer (pH 7.4). The total volume is 200 μl. The corresponding control incubations with and without standard inhibitor also take place on the 96-well plate. The incubations are stopped after the respective incubation time by adding 100 μl of acetonitrile in which there is a suitable internal standard. Precipitated proteins are removed by centrifugation (3000 rpm, 10 minutes, 10° C.). The resulting supernatants of the respective plates are combined on one plate and analyzed by LC-MS/MS. The […] values are generated from the resulting measured data and used to assess the inhibitory potential of the test compound.

[2] = biological target: T4, progesterone receptor (PR) (Homo sapiens, UniProt P06401); experiment: Cellular in vitro assay, GAL4-PR chimera luciferase reporter in CHO K1 cells (selectivity); format: cell-based; conditions: antagonism vs progesterone; CHO K1 GAL4-PR LBD luciferase reporter
T4 construct: of the progesterone receptor (PR, amino acids 680-933); expressed in transfected cells; host or cells: CHO K1
T4 sequence (P06401 680-933): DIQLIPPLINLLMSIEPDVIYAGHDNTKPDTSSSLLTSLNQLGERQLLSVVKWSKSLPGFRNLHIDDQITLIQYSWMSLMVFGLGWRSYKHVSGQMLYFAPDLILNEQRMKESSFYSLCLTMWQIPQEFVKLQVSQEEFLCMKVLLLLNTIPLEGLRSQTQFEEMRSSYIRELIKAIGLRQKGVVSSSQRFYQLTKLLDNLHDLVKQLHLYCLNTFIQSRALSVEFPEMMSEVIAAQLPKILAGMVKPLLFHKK
Text: as §1, §2, §3, §4, §5

[3] = 30 min preincubation with test compound before substrate, read-out: CYP 3A4 Preincubation, 30 min.
[4] = without preincubation, read-out: CYP 3A4 Coincubation

T3 sequence (P08684 whole entry): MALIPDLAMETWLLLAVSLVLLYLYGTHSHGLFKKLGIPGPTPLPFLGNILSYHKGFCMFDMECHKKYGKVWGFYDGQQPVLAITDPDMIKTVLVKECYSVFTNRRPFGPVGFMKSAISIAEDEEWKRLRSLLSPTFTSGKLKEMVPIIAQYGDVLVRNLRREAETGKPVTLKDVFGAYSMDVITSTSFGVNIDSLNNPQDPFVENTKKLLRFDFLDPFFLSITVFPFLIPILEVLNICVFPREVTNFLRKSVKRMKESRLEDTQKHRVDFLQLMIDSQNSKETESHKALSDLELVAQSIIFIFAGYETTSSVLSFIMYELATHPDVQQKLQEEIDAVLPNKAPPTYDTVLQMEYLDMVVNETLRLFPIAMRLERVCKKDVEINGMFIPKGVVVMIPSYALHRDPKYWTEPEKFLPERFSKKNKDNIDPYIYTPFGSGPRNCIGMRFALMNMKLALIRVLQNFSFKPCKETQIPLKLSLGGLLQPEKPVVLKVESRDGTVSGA

IC50 [1] [µM]	IC50 (androgen receptor (AR)) [µM]	IC50 (CYP3A4; [3]) [µM]	IC50 (CYP3A4; [4]) [µM]	IC50 [2] [µM]	Compound
0.028	6.06	15	> 20	5.24	CS(=O)(=O)Cc1cccc2c(C(c3ccc(Cl)cc3)C3CC3(F)F)c[nH]c12 (single isomer, unassigned) [Example 261-2, 3-[(4-Chlorophenyl)(2,2-difluorocyclopropyl)methyl]-7-[(methylsulfonyl)methyl]-1H-indole]
0.066	1.39	15.8	> 20	3.77	CS(=O)(=O)Cc1cccc2c(C(c3ccc(Cl)cc3Cl)C3CC3)c[nH]c12 (stereo not drawn) [Example 242, 3-[Cyclopropyl(2,4-dichlorophenyl)methyl]-7-[(methylsulfonyl)methyl]-1H-indole]
0.071	3.03	> 20	> 20	10	CS(=O)(=O)Cc1cccc2c(C(c3c(F)cc(Cl)cc3F)C3CC3)c[nH]c12 (stereo not drawn) [Example 252, 3-[(4-Chloro-2,6-difluorophenyl)(cyclopropyl)methyl]-7-[(methylsulfonyl)methyl]-1H-indole]
0.12	3.45	> 20	> 20	–	CS(=O)(=O)Cc1cccc2c(C(c3ccc(C(F)(F)F)cc3Cl)C3CC3)c[nH]c12 (stereo not drawn) [Example 245, 3-{[2-Chloro-4-(trifluoromethyl)phenyl](cyclopropyl)methyl}-7-[(methylsulfonyl)methyl]-1H-indole]
0.03	3.2	7.8	> 20	2.23	CC(CCC#N)(c1ccc(Cl)cc1)c1c[nH]c2c(CS(C)(=O)=O)cccc12 (stereo not drawn) [Example 171, 4-(4-Chlorophenyl)-4-{7-[(methylsulfonyl)methyl]-1H-indol-3-yl}-pentanonitrile]
0.024	–	18.2	> 20	10	CS(=O)(=O)Cc1cccc2c(C(c3ccc(Cl)cc3)C3CC3C#N)c[nH]c12 (stereo not drawn) [Example 276, 2-[(4-Chlorophenyl){7-[(methylsulfonyl)methyl]-1H-indol-3-yl}methyl]cyclopropanecarbonitrile]
0.069	3.45	18.3	> 20	9.73	CS(=O)(=O)Cc1cccc2c(C(c3ccc(Cl)cc3)C3CC3)c[nH]c12 (stereo not drawn) [Example 249, 3-[(4-Chlorophenyl)(cyclopropyl)methyl]-7-[(methylsulfonyl)methyl]-1H-indole]
0.27	1.6	19.4	> 20	10	CS(=O)(=O)Cc1cccc2c(C(c3ccc(F)cc3F)C3CC3)c[nH]c12 (stereo not drawn) [Example 250, 3-[Cyclopropyl(2,4-difluorophenyl)methyl]-7-[(methylsulfonyl)methyl]-1H-indole]
0.15	–	14.4	> 20	5.51	C[S+]([O-])Cc1cccc2c(C3(C4CC4)CCc4cc(F)ccc43)c[nH]c12 (mixture of isomers) [Example 120, 3-(1-Cyclopropyl-5-fluoro-2,3-dihydro-1H-inden-1-yl)-7-[(methylsulfinyl)methyl]-1H-indole]
